Source: US10058094B2, “Antimicrobial sanitizer compositions and methods of making the same” (priority 2013, dated 2018)

Experiments:
[1] = test system: Salmonella typhi ATCC 6539; test: Chlorine equivalence test; type: cell-based; design: key to growth of organism, Subculture Series 8 / growth of organism, Subculture Series 9 / growth of organism, Subculture Series 10 / growth of organism, Subculture Series 1 / growth of organism, Subculture Series 2 / growth of organism, Subculture Series 3 / growth of organism, Subculture Series 4 / growth of organism, Subculture Series 5 / growth of organism, Subculture Series 6 / growth of organism, Subculture Series 7: growth of organism (+); no growth of organism (0); details: for growth of organism, Subculture Series 1 / growth of organism, Subculture Series 2 / growth of organism, Subculture Series 3 / growth of organism, Subculture Series 4 / growth of organism, Subculture Series 5 / growth of organism, Subculture Series 6 / growth of organism, Subculture Series 7 / growth of organism, Subculture Series 8 / growth of organism, Subculture Series 9 / growth of organism, Subculture Series 10: Salmonella typhi
Method: (§1) The Table 1 sanitizer was tested to determine its efficiency at reducing bacteria on the skin via a chlorine equivalence test. Samples were prepared of Staphylococcus aureus ATCC 6538 (7.6×10^8 colony forming units per mL of text mixture) and Salmonella typhi ATCC 6539 (1.2×10^8 colony forming units per mL of text mixture). The samples were then treated against a NaOCl control at 200 ppm, 100 ppm, and 50 ppm, as well as the sanitizer disclosed herein. Thereafter, ten subculture series were taken.

[2] = test system: Staphylococcus aureus ATCC 6538; test: Chlorine equivalence test; type: cell-based; design: key to growth of organism, Subculture Series 8 / growth of organism, Subculture Series 9 / growth of organism, Subculture Series 10 / growth of organism, Subculture Series 1 / growth of organism, Subculture Series 2 / growth of organism, Subculture Series 3 / growth of organism, Subculture Series 4 / growth of organism, Subculture Series 5 / growth of organism, Subculture Series 6 / growth of organism, Subculture Series 7: growth of organism (+); no growth of organism (0); details: for growth of organism, Subculture Series 1 / growth of organism, Subculture Series 2 / growth of organism, Subculture Series 3 / growth of organism, Subculture Series 4 / growth of organism, Subculture Series 5 / growth of organism, Subculture Series 6 / growth of organism, Subculture Series 7 / growth of organism, Subculture Series 8 / growth of organism, Subculture Series 9 / growth of organism, Subculture Series 10: Staphylococcus aureus
Method: as §1

## [Na+].[O-]Cl [NaOCl]
[1]; Salmonella typhi ATCC 6539, NaOCl control at 200 ppm, 100 ppm, and 50 ppm, ten subculture series
  growth of organisms over the ten subculture series: eventually showed growth of organisms
[1]; concentration 50 ppm
  growth of organism, Subculture Series 1: 0
  growth of organism, Subculture Series 2: 0
  growth of organism, Subculture Series 3: +
  growth of organism, Subculture Series 4: +
  growth of organism, Subculture Series 5: +
  growth of organism, Subculture Series 6: +
  growth of organism, Subculture Series 7: +
  growth of organism, Subculture Series 8: +
  growth of organism, Subculture Series 9: +
  growth of organism, Subculture Series 10: +
[1]; concentration 100 ppm
  growth of organism, Subculture Series 1: 0
  growth of organism, Subculture Series 2: 0
  growth of organism, Subculture Series 3: 0
  growth of organism, Subculture Series 4: +
  growth of organism, Subculture Series 5: +
  growth of organism, Subculture Series 6: +
  growth of organism, Subculture Series 7: +
  growth of organism, Subculture Series 8: +
  growth of organism, Subculture Series 9: +
  growth of organism, Subculture Series 10: +
[1]; concentration 200 ppm
  growth of organism, Subculture Series 1: 0
  growth of organism, Subculture Series 2: 0
  growth of organism, Subculture Series 3: 0
  growth of organism, Subculture Series 4: 0
  growth of organism, Subculture Series 5: 0
  growth of organism, Subculture Series 6: 0
  growth of organism, Subculture Series 7: +
  growth of organism, Subculture Series 8: +
  growth of organism, Subculture Series 9: +
  growth of organism, Subculture Series 10: +
[2]; Staphylococcus aureus ATCC 6538, NaOCl control at 200 ppm, 100 ppm, and 50 ppm, ten subculture series
  growth of organisms over the ten subculture series: eventually showed growth of organisms
[2]; concentration 50 ppm
  growth of organism, Subculture Series 1: 0
  growth of organism, Subculture Series 2: +
  growth of organism, Subculture Series 3: +
  growth of organism, Subculture Series 4: +
  growth of organism, Subculture Series 5: +
  growth of organism, Subculture Series 6: +
  growth of organism, Subculture Series 7: +
  growth of organism, Subculture Series 8: +
  growth of organism, Subculture Series 9: +
  growth of organism, Subculture Series 10: +
[2]; concentration 100 ppm
  growth of organism, Subculture Series 1: 0
  growth of organism, Subculture Series 2: 0
  growth of organism, Subculture Series 3: +
  growth of organism, Subculture Series 4: +
  growth of organism, Subculture Series 5: +
  growth of organism, Subculture Series 6: +
  growth of organism, Subculture Series 7: +
  growth of organism, Subculture Series 8: +
  growth of organism, Subculture Series 9: +
  growth of organism, Subculture Series 10: +
[2]; concentration 200 pm
  growth of organism, Subculture Series 1: 0
  growth of organism, Subculture Series 3: 0
  growth of organism, Subculture Series 8: +
  growth of organism, Subculture Series 10: +
[2]; concentration 200 ppm
  growth of organism, Subculture Series 2: 0
  growth of organism, Subculture Series 4: 0
  growth of organism, Subculture Series 5: 0
  growth of organism, Subculture Series 6: +
  growth of organism, Subculture Series 7: +
  growth of organism, Subculture Series 9: +
